# Experimental data published in US11084809B2, “N-((HET)arylmethyl)-heteroaryl-carboxamides compounds as kallikrein inhibitors” (KALVISTA PHARMACEUTICALS LIMITED, priority 2014, dated 2021).
# pIC50: −log10 of the molar value.
# Key:
# Assay type in all cases: biochemical
# Human XIa = Human XIa (Homo sapiens (Human), UniProt P03951); experiment: Determination of the % inhibition for XIa; conditions: 40 μM test compound, 25° C.
# Method: Determination of the % Inhibition for XIa
# Human XIa (Enzyme Research Laboratories) was incubated at 25° C. with the fluorogenic substrate Z-Gly-Pro-Arg-AFC and 40 μM of the test compound. Residual enzyme activity (initial rate of reaction) was determined by measuring the change in optical absorbance at 410 nm.
# Human plasma kallikrein = Human plasma kallikrein (Homo sapiens (Human), UniProt P03952); experiment: Determination of the IC50 for plasma kallikrein; conditions: read-out: IC50 (human PKal)
# Sequence of Human plasma kallikrein (P03952 391-638): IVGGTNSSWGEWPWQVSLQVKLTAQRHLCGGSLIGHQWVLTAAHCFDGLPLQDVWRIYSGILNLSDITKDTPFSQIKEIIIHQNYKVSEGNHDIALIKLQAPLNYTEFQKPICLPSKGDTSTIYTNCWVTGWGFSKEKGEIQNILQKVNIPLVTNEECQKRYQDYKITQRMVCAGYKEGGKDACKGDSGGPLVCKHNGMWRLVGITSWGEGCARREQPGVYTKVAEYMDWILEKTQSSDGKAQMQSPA
# Sequence of Human plasma kallikrein (P03952 20-390 partner): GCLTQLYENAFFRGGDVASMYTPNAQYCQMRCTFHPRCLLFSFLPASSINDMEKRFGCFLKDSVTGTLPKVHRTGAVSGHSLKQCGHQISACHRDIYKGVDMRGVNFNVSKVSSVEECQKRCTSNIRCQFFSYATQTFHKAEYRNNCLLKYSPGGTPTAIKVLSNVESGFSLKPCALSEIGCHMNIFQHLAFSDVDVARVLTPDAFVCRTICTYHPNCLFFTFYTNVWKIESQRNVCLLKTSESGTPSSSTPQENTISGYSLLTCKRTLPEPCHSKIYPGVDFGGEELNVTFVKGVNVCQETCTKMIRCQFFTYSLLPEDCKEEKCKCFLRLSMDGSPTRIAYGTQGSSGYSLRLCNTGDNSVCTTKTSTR
# Method: Determination of the IC50 for plasma kallikrein
# (§1) Human plasma kallikrein (Protogen) was incubated at 25° C. with the fluorogenic substrate H-DPro-Phe-Arg-AFC and various concentrations of the test compound. Residual enzyme activity (initial rate of reaction) was determined by measuring the change in […] at 410 nm and the IC50 value for the test compound was determined.
# Human KLK1 = Human KLK1 (Homo sapiens (Human), UniProt P06870); experiment: Determination of the IC50 for KLK1; conditions: human KLK1, 25° C., substrate H-DVal-Leu-Arg-AFC
# Sequence of Human KLK1 (P06870 25-262): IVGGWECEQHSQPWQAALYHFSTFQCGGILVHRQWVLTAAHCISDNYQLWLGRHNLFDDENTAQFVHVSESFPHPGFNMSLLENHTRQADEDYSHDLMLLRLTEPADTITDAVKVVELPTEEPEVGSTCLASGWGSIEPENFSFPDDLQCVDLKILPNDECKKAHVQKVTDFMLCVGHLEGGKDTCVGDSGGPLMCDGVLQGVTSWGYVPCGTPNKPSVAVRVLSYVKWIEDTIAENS
# Method: Determination of the IC50 for KLK1
# as §1, with “KLK1 (Callbiochem)” for “plasma kallikrein (Protogen)”, “H-DVal-Leu-Arg-AFC” for “H-DPro-Phe-Arg-AFC”
# Sequence of Human XIa (P03951 388-625): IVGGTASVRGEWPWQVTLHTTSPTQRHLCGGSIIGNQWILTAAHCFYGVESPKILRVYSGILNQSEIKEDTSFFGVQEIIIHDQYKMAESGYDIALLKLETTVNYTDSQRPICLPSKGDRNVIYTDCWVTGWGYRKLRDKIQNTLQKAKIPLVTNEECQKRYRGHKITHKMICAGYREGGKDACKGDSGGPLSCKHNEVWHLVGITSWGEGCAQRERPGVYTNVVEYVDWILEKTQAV
# Sequence of Human XIa (P03951 19-387 partner): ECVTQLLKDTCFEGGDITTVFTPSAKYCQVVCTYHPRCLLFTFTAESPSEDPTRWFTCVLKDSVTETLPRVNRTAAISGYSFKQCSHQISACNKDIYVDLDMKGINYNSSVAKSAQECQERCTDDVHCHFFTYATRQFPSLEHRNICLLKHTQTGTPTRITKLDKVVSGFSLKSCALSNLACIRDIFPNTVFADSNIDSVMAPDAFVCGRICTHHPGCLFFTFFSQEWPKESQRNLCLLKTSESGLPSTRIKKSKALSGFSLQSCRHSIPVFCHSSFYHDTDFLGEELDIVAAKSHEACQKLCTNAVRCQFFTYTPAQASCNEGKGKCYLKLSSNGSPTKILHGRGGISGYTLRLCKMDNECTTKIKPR
Compound,% Inhibition @ 40 μM (human FXIa) (Human XIa),pIC50 (Human plasma kallikrein),pIC50 (Human KLK1)
"Nc1nn(Cc2ccc(Cn3ccccc3=O)cc2)cc1C(=O)NCc1ccc(OC(F)(F)F)cc1 [Example 58, 3-amino-1-({4-[(2-oxopyridin-1-yl)methyl]phenyl}methyl)-N-{[4-(trifluoromethoxy)phenyl]methyl}pyrazole-4-carboxamide]",0%,,
"N-[(2,4-dimethylphenyl)methyl]-1-({4-[(4-methylpyrazol-1-yl)methyl]phenyl}methyl)-3-(trifluoromethyl)pyrazole-4-carboxamide [Example 24]",,6.14,< 5.00
"NC(=O)c1cccc(CNC(=O)c2cn(Cc3ccc(Cn4ccccc4=O)cc3)nc2C2CC2)c1 [Example 49, N-[(3-carbamoylphenyl)methyl]-3-cyclopropyl-1-({4-[(2-oxopyridin-1-yl)methyl]phenyl}methyl)pyrazole-4-carboxamide]",0%,,
"COc1cccc(CNC(=O)c2cn(Cc3ccc(Cn4ccccc4=O)cc3)nc2C2CC2)c1F [Example 52, 3-cyclopropyl-N-[(2-fluoro-3-methoxyphenyl)methyl]-1-({4-[(2-oxopyridin-1-yl)methyl]phenyl}methyl)pyrazole-4-carboxamide]",1%,,
"CCOc1cccc(CNC(=O)c2cn(Cc3ccc(Cn4cc(C)cn4)cc3)nc2C(F)(F)F)c1 [Example 6, N-[(3-ethoxyphenyl)methyl]-1-({4-[(4-methylpyrazol-1-yl)methyl]phenyl}methyl)-3-(trifluoromethyl)pyrazole-4-carboxamide]",0%,,< 5.00
"N-[(2,6-dimethylphenyl)methyl]-1-({4-[(4-methylpyrazol-1-yl)methyl]phenyl}methyl)-3-(trifluoromethyl)pyrazole-4-carboxamide [Example 25]",,5.74,< 5.00
